Source: patent US20100298141A1, “SUBSTITUTED PYRIDINE N-OXIDE HERBICIDES” (E. I. DU PONT DE NEMOURS AND COMPANY, priority 2007, published 2010)

What was measured:
Assay in all cases: Test F preemergence test
common groundsel = type: in vivo, Senecio vulgaris; conditions: scale 0 to 100
Outline: (§1)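 Compounds in a non-phytotoxic solvent formulation with surfactant were applied before emergence after sowing, or, for sugarcane, also postemergence. Evaluation was visual, against controls, after 14 to 21 greenhouse days.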

prickly sida = type: in vivo, Sida spinosa; conditions: scale 0 to 100
Outline: as §1

southern sandbur = type: in vivo, Cenchrus echinatus; conditions: scale 0 to 100
Outline: as §1

purple nutsedge = type: in vivo, Cyperus rotundus; conditions: scale 0 to 100
Outline: as §1

Surinam grass = type: in vivo, Brachiaria decumbens; conditions: scale 0 to 100
Outline: as §1

common ragweed = type: in vivo, Ambrosia elation; conditions: scale 0 to 100
Outline: as §1

goosegrass = type: in vivo, Eleusine indica; conditions: scale 0 to 100
Outline: as §1

bermudagrass = type: in vivo, Cynodon dactylon; conditions: scale 0 to 100
Outline: as §1

common purslane = type: in vivo, Portulaca oleracea; conditions: scale 0 to 100
Outline: as §1

naked crabgrass = type: in vivo, Digitaria nuda; conditions: scale 0 to 100
Outline: as §1

guineagrass = type: in vivo, Panicum maximum; conditions: scale 0 to 100
Outline: as §1

quackgrass = type: in vivo, Elytrigia repens; conditions: scale 0 to 100
Outline: as §1

pitted morningglory = type: in vivo, Ipomoea lacunosa; conditions: scale 0 to 100
Outline: as §1

kochia = type: in vivo, Kochia scoparia; conditions: scale 0 to 100
Outline: as §1

Italian ryegrass = type: in vivo, Lolium multiflorum; conditions: scale 0 to 100
Outline: as §1

large crabgrass = type: in vivo, Digitaria sanguinalis; conditions: Preemergence, scale 0 to 100
Outline: as §1

johnsongrass = type: in vivo, Sorghum halepense; conditions: scale 0 to 100
Outline: as §1

Cn1nc(C(F)(F)F)c(CS(=O)(=O)c2cccc[n+]2[O-])c1OC(F)F [Compound 4]
Plant response rating, Groundsel (common groundsel; 8 g ai/ha, preemergence): 10
Groundsel plant response rating (common groundsel; 62 g ai/ha, Preemergence): 100
Plant response rating, Groundsel (common groundsel; Preemergence, 16 g ai/ha): 25
Plant response rating, Groundsel (common groundsel; Preemergence, 31 g ai/ha): 100
Plant response rating, Prickly Sida (prickly sida; 8 g ai/ha, preemergence): 0
Prickly Sida plant response rating (prickly sida; 62 g ai/ha, Preemergence): 0
Plant response rating, Prickly Sida (prickly sida; Preemergence, 16 g ai/ha): 0
Plant response rating, Prickly Sida (prickly sida; Preemergence, 31 g ai/ha): 0
Plant response rating, Sandbur (southern sandbur; 8 g ai/ha, preemergence): 25
Plant response rating, Sandbur (southern sandbur; 16 g ai/ha, preemergence): 90
Sandbur plant response rating (southern sandbur; 62 g ai/ha, Preemergence): 100
Plant response rating, Sandbur (southern sandbur; Preemergence, 31 g ai/ha): 100
Plant response rating, Purple Nutsedge (purple nutsedge; 8 g ai/ha, preemergence): 0
Purple Nutsedge plant response rating (purple nutsedge; 62 g ai/ha, Preemergence): 80
Plant response rating, Purple Nutsedge (purple nutsedge; Preemergence, 16 g ai/ha): 65
Plant response rating, Purple Nutsedge (purple nutsedge; Preemergence, 31 g ai/ha): 65
Plant response rating, Surinam Grass (Surinam grass; 8 g ai/ha, preemergence): 0
Plant response rating, Surinam Grass (Surinam grass; 16 g ai/ha, preemergence): 20
Plant response rating, Surinam Grass (Surinam grass; Preemergence, 31 g ai/ha): 100
Plant response rating, Ragweed (common ragweed; 8 g ai/ha, preemergence): 0
Ragweed plant response rating (common ragweed; 62 g ai/ha, Preemergence): 90
Plant response rating, Ragweed (common ragweed; Preemergence, 16 g ai/ha): 65
Plant response rating, Ragweed (common ragweed; Preemergence, 31 g ai/ha): 75
Plant response rating, Goosegrass (goosegrass; 8 g ai/ha, preemergence): 0
Goosegrass plant response rating (goosegrass; 62 g ai/ha, Preemergence): 98
Plant response rating, Goosegrass (goosegrass; Preemergence, 16 g ai/ha): 80
Plant response rating, Goosegrass (goosegrass; Preemergence, 31 g ai/ha): 98
Plant response rating, Bermudagrass (bermudagrass; 8 g ai/ha, preemergence): 20
Bermudagrass plant response rating (bermudagrass; 62 g ai/ha, Preemergence): 100
Plant response rating, Bermudagrass (bermudagrass; Preemergence, 16 g ai/ha): 98
Plant response rating, Bermudagrass (bermudagrass; Preemergence, 31 g ai/ha): 100
Plant response rating, Purslane (common purslane; 8 g ai/ha, preemergence): 15
Purslane plant response rating (common purslane; 62 g ai/ha, Preemergence): 20
Plant response rating, Purslane (common purslane; Preemergence, 16 g ai/ha): 15
Plant response rating, Purslane (common purslane; Preemergence, 31 g ai/ha): 20
Plant response rating, Crabgrass, Naked (naked crabgrass; 8 g ai/ha, preemergence): 70
Crabgrass, Naked plant response rating (naked crabgrass; 62 g ai/ha, Preemergence): 100
Plant response rating, Crabgrass, Naked (naked crabgrass; Preemergence, 16 g ai/ha): 70
Plant response rating, Crabgrass, Naked (naked crabgrass; Preemergence, 31 g ai/ha): 100
Plant response rating, Guineagrass (guineagrass; 8 g ai/ha, preemergence): 50
Guineagrass plant response rating (guineagrass; 62 g ai/ha, Preemergence): 100
Plant response rating, Guineagrass (guineagrass; Preemergence, 16 g ai/ha): 80
Plant response rating, Guineagrass (guineagrass; Preemergence, 31 g ai/ha): 100
Plant response rating, Quackgrass (quackgrass; 8 g ai/ha, preemergence): 0
Quackgrass plant response rating (quackgrass; 62 g ai/ha, Preemergence): 75
Plant response rating, Quackgrass (quackgrass; Preemergence, 16 g ai/ha): 0
Plant response rating, Quackgrass (quackgrass; Preemergence, 31 g ai/ha): 35
Plant response rating, Morningglory (pitted morningglory; 8 g ai/ha, preemergence): 0
Morningglory plant response rating (pitted morningglory; 62 g ai/ha, Preemergence): 0
Plant response rating, Morningglory (pitted morningglory; Preemergence, 16 g ai/ha): 0
Plant response rating, Morningglory (pitted morningglory; Preemergence, 31 g ai/ha): 0
Plant response rating, Kochia (kochia; 8 g ai/ha, preemergence): 0
Kochia plant response rating (kochia; 62 g ai/ha, Preemergence): 75
Plant response rating, Kochia (kochia; Preemergence, 16 g ai/ha): 0
Plant response rating, Kochia (kochia; Preemergence, 31 g ai/ha): 75
Plant response rating, Ryegrass, Italian (Italian ryegrass; 8 g ai/ha, preemergence): 0
Ryegrass, Italian plant response rating (Italian ryegrass; 62 g ai/ha, Preemergence): 65
Plant response rating, Ryegrass, Italian (Italian ryegrass; Preemergence, 16 g ai/ha): 0
Plant response rating, Ryegrass, Italian (Italian ryegrass; Preemergence, 31 g ai/ha): 65
Crabgrass, Large plant response rating (large crabgrass; 62 g ai/ha): 100
Plant response rating, Crabgrass, Large (large crabgrass; 16 g ai/ha): 70
Plant response rating, Crabgrass, Large (large crabgrass; 31 g ai/ha): 70
Plant response rating, Johnsongrass (johnsongrass; 8 g ai/ha, preemergence): 5
Johnsongrass plant response rating (johnsongrass; 62 g ai/ha, Preemergence): 95
Plant response rating, Johnsongrass (johnsongrass; Preemergence, 16 g ai/ha): 75
Plant response rating, Johnsongrass (johnsongrass; Preemergence, 31 g ai/ha): 90
